The values below come from ChEMBL document CHEMBL3351833, “Synthesis and Biological Evaluation of Pyrazolo[1,5-a]pyrimidine Compounds as Potent and Selective Pim-1 Inhibitors” (ACS Med Chem Lett, 2015).

A word on the IC50: it is the concentration that inhibits the measured activity by half.

SMILES strings stand for the structures.

Assay [1] addresses Serine/threonine-protein kinase pim-2 (Homo sapiens, UniProt Q9P1W9). Briefly: Inhibition of Pim2 (unknown origin) using luciferase-luciferin based ATP detection reagent by Kinase-Glo assay. A general note: Kinase-Glo measures the ATP left after a reaction by luminescence.
The target of assay [2] is Serine/threonine-protein kinase pim-1 (Homo sapiens, UniProt P11309). Briefly: Inhibition of Pim1 (unknown origin) using luciferase-luciferin based ATP detection reagent by Kinase-Glo assay.
Chain of Serine/threonine-protein kinase pim-1 (P11309 whole entry): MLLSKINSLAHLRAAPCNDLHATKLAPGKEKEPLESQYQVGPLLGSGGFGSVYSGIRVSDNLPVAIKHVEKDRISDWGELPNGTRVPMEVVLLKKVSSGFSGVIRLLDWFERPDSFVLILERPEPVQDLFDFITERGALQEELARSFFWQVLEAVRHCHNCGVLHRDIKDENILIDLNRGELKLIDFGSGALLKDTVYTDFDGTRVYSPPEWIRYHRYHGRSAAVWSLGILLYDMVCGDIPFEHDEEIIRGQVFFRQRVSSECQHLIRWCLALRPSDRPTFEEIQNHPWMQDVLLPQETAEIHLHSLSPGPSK
Assay [3] concerns the target T1, Receptor-type tyrosine-protein kinase FLT3 (Homo sapiens, UniProt P36888).
T1 sequence (P36888 whole entry): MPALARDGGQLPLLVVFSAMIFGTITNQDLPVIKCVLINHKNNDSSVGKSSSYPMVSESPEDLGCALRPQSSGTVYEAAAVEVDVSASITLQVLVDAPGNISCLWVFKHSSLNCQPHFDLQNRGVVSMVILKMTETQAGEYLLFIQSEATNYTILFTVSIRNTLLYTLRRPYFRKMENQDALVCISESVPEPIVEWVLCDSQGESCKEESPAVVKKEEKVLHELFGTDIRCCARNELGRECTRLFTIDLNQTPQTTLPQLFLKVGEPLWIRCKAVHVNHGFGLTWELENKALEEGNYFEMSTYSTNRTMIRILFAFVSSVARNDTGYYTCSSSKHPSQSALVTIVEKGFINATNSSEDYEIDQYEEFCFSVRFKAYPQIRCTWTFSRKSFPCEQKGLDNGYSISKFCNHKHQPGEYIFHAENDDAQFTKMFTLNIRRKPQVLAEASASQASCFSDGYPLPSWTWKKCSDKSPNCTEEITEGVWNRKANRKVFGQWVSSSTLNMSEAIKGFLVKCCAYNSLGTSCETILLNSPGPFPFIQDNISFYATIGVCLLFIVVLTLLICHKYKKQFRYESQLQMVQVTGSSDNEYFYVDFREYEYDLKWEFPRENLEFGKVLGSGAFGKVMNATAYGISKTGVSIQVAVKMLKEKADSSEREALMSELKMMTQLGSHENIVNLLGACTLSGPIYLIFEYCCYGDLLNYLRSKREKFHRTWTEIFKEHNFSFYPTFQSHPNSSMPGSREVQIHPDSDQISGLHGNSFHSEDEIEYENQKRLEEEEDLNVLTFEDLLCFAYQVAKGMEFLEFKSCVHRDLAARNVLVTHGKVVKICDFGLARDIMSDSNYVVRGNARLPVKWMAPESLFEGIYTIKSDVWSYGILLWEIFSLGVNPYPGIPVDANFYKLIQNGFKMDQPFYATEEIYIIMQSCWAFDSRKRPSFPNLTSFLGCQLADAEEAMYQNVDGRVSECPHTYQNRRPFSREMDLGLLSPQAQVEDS
The experiment in a line: Inhibition of human Flt3 (unknown origin).

The target in assay [4] is Voltage-gated inwardly rectifying potassium channel KCNH2 (Homo sapiens, UniProt Q12809). Briefly: Inhibition of human ERG expressed in CHO cells by automated patch clamp method. The assay is classed as cell-based. Background: In patch-clamp work, channel activity is measured electrically.
Chain of Voltage-gated inwardly rectifying potassium channel KCNH2 (Q12809 whole entry): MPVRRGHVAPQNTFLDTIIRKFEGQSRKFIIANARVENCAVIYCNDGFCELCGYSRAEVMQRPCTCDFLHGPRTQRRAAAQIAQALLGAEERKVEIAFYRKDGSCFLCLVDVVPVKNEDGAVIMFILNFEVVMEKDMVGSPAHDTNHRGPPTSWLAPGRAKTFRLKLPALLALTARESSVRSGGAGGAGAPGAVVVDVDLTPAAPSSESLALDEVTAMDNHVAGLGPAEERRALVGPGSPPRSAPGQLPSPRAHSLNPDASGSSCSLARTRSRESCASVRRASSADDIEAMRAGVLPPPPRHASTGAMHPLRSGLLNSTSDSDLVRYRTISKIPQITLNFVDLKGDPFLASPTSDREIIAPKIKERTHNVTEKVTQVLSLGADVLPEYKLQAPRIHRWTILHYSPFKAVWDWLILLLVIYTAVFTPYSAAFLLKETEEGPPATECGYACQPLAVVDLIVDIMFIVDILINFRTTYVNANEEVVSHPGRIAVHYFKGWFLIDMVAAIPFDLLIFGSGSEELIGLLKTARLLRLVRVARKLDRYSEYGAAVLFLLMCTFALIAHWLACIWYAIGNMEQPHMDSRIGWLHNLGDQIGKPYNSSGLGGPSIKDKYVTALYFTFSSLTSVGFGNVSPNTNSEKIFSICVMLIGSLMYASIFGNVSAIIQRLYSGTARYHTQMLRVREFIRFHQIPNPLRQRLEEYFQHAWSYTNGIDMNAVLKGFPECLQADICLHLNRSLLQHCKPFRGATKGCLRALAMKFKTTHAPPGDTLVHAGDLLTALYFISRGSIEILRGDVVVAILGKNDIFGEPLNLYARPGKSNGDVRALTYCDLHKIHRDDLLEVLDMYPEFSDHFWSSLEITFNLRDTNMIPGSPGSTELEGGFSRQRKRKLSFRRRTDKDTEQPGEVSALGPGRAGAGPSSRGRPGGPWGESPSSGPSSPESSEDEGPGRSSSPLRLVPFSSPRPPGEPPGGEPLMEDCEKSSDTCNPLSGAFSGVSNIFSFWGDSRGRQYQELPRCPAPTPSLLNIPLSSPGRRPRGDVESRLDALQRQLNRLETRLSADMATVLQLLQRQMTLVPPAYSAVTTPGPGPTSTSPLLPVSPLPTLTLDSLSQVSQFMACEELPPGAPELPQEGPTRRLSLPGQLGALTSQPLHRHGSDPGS

Chain of Serine/threonine-protein kinase pim-2 (Q9P1W9 whole entry): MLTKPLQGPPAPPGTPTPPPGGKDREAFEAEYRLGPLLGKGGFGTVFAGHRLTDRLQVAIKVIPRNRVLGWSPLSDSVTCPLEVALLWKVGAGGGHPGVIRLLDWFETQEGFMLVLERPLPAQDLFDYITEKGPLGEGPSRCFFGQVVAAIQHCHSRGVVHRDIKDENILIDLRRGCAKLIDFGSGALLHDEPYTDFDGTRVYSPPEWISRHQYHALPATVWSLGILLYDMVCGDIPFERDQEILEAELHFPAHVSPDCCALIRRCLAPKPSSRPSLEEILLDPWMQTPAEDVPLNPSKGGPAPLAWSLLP

On to `FC(F)(F)c1cccc(-c2cnn3ccc(NCC4CCOCC4)nc23)c1`, for which the 50% inhibitory concentration (IC50) turned out to be 1970 nM in assay [1] (read-out: IC50) and 149 nM in assay [2] (read-out: IC50).
Consider `CC(C)(O)[C@H]1CC[C@H](Nc2ccn3ncc(-c4cccc(C(F)(F)F)c4)c3n2)CC1`, for which the IC50 in assay [1] (read-out: IC50) was 525 nM; in assay [3] it was 271 nM; in assay [4], more than 30000 nM.
In the case of `O=S1(=O)CCC(CNc2ccn3ncc(-c4cccc(OC(F)(F)F)c4)c3n2)CC1`, the concentration for half-maximal inhibition (IC50) in assay [1] (read-out: IC50) was found to be 8160 nM.
On the same count and under the same terms, in the case of `C[C@]1(O)CC[C@H](Nc2ccn3ncc(-c4cccc(OC(F)(F)F)c4)c3n2)CC1` it was 2040 nM.
On the same count and under the same terms, in the case of `CO[C@H]1CC[C@H](Nc2ccn3ncc(-c4cccc(C(F)(F)F)c4)c3n2)CC1` it was 4660 nM; in that of `C[C@]1(O)CC[C@H](Nc2ccn3ncc(-c4cccc(Cl)c4)c3n2)CC1`, 1260 nM; in that of `O=S1(=O)CCC(CNc2ccn3ncc(-c4cccc(Cl)c4)c3n2)CC1`, 2070 nM.
As for `O[C@H]1CC[C@H](Nc2ccn3ncc(-c4cccc(Cl)c4)c3n2)CC1`, the IC50 in assay [1] (read-out: IC50) was determined as 506 nM.
For the compound `O=C1CCN(c2ccn3ncc(-c4cccc(Cl)c4)c3n2)CC1`, the concentration for half-maximal inhibition (IC50) is 564 nM in assay [1] (read-out: IC50) and 168 nM in assay [2] (read-out: IC50).
On to `CC(C)(O)[C@H]1CC[C@H](Nc2ccn3ncc(-c4cccc(OC(F)(F)F)c4)c3n2)CC1`, for which the 50% inhibitory concentration (IC50) in assay [1] (read-out: IC50) is 4090 nM.
In the case of `CO[C@H]1CC[C@H](Nc2ccn3ncc(-c4cccc(Cl)c4)c3n2)CC1`, the half-inhibitory concentration (IC50) in assay [1] (read-out: IC50) worked out at 1020 nM.
The same measure, in the same setting: next, `O=S1(=O)CCC(CNc2ccn3ncc(-c4cccc(C(F)(F)F)c4)c3n2)CC1`: 6020 nM.
Turning to `FC(F)(F)Oc1cccc(-c2cnn3ccc(NCC4CCOCC4)nc23)c1`, the values for the IC50 in assay [1] (read-out: IC50) and in assay [2] (read-out: IC50) were 3730 nM and 633 nM, respectively.
Turning to `N[C@H]1CC[C@H](Nc2ccn3ncc(-c4cccc(Cl)c4)c3n2)CC1`, in assay [1] (read-out: IC50), the concentration for half-maximal inhibition (IC50) worked out at 732 nM.
Take `N[C@H]1CCCN(c2ccn3ncc(-c4cccc(OC(F)(F)F)c4)c3n2)C1`: in assay [1] (read-out: IC50), the 50% inhibitory concentration (IC50) was 987 nM.
On the same count and under the same terms, next, `N[C@H]1CCCN(c2ccn3ncc(-c4cccc(Cl)c4)c3n2)C1`: 2000 nM; `Clc1cccc(-c2cnn3ccc(NCC4CCOCC4)nc23)c1`: 1640 nM.
With `O=S1(=O)CCC(Nc2ccn3ncc(-c4cccc(C(F)(F)F)c4)c3n2)CC1`, the IC50 entry in assay [1] and in assay [2] was “Not Active” in each case.
For `C[C@]1(O)CC[C@H](Nc2ccn3ncc(-c4cccc(C(F)(F)F)c4)c3n2)CC1`, in assay [1] (read-out: IC50), the IC50 was determined as 639 nM.
As to `O[C@H]1CC[C@H](Nc2ccn3ncc(-c4cccc(OC(F)(F)F)c4)c3n2)CC1`, the IC50 is 269 nM in assay [1] (read-out: IC50) and 157 nM in assay [3].
With `CN1CCC(CNc2ccn3ncc(-c4cccc(OC(F)(F)F)c4)c3n2)CC1`, the half-inhibitory concentration (IC50) in assay [1] (read-out: IC50) is 1490 nM.
In the case of `O[C@H]1CC[C@H](Nc2ccn3ncc(-c4cccc(C(F)(F)F)c4)c3n2)CC1`, the half-maximal inhibitory concentration (IC50) in assay [1] (read-out: IC50) came out at 282 nM; in assay [3], 53 nM.
Regarding `CO[C@H]1CC[C@H](Nc2ccn3ncc(-c4cccc(OC(F)(F)F)c4)c3n2)CC1`, the 50% inhibitory concentration (IC50) in assay [1] (read-out: IC50) worked out at 3620 nM.
Regarding `N[C@H]1CC[C@H](Nc2ccn3ncc(-c4cccc(OC(F)(F)F)c4)c3n2)CC1`, the IC50 in assay [1] (read-out: IC50) worked out at 100 nM.
